Test results: the kinase profiling compilation of Christmann-Franck et al. (2016)
Values belong to the molecule of their own block, whether it stands above or below them.

Assays:
EIF2AK2 (human) = EIF2AK2 (human) (UniProt P19525); experiment: IMAP-FP
PKN1 (human) = PKN1 (human) (UniProt Q16512); experiment: IMAP-FP
EIF2AK3 (human) = EIF2AK3 (human) (UniProt Q9NZJ5); experiment: IMAP-FP
SRPK1 (human) = SRPK1 (human) (UniProt Q96SB4); experiment: IMAP-FP
AKT3 (human) = AKT3 (human) (UniProt Q9Y243); experiment: Caliper, Mobility shift assay off-chip
TSSK3 (human) = TSSK3 (human) (UniProt Q96PN8); experiment: Caliper, Mobility shift assay off-chip
DYRK1A (human) = DYRK1A (human) (UniProt Q13627); experiment: Caliper, Mobility shift assay off-chip
MARK3 (human) = MARK3 (human) (UniProt P27448); experiment: Caliper, Mobility shift assay off-chip
WNK1 (human) = WNK1 (human) (UniProt Q9H4A3); experiment: Caliper, Mobility shift assay off-chip
SRPK3 (human) = SRPK3 (human) (UniProt Q9UPE1); experiment: Caliper, Mobility shift assay off-chip
PRKAA1 (human) = PRKAA1 (human) (UniProt Q13131); experiment: Caliper, Mobility shift assay off-chip
IRAK4 (human) = IRAK4 (human) (UniProt Q9NWZ3); experiment: Caliper, Mobility shift assay off-chip
TYRO3 (human) = TYRO3 (human) (UniProt Q06418); experiment: Caliper, Mobility shift assay off-chip
EPHA1 (human) = EPHA1 (human) (UniProt P21709); experiment: Caliper, Mobility shift assay off-chip
PDGFRA (human) = PDGFRA (human) (UniProt P16234); experiment: Caliper, Mobility shift assay off-chip
PRKCI (human) = PRKCI (human) (UniProt P41743); experiment: Caliper, Mobility shift assay off-chip
BLK (human) = BLK (human) (UniProt P51451); experiment: Caliper, Mobility shift assay off-chip
EEF2K (human) = EEF2K (human) (UniProt O00418); experiment: Caliper, Mobility shift assay off-chip
STK4 (human) = STK4 (human) (UniProt Q13043); experiment: Caliper, Mobility shift assay off-chip
CHUK (human) = CHUK (human) (UniProt O15111); experiment: Caliper, Mobility shift assay off-chip
FYN (human) = FYN (human) (UniProt P06241); experiment: Caliper, Mobility shift assay off-chip
RPS6KA6 KD1 KD2 (human) = RPS6KA6 KD1 KD2 (human) (UniProt Q9UK32); experiment: Caliper, Mobility shift assay off-chip
PRKCD (human) = PRKCD (human) (UniProt Q05655); experiment: Caliper, Mobility shift assay off-chip
LTK (human) = LTK (human) (UniProt P29376); experiment: Caliper, Mobility shift assay off-chip
CAMK1D (human) = CAMK1D (human) (UniProt Q8IU85); experiment: Caliper, Mobility shift assay off-chip
ALK NPM1 (human) = ALK NPM1 (human) (UniProt P06748+Q9UM73); experiment: Caliper, Mobility shift assay off-chip
ABL2 (human) = ABL2 (human) (UniProt P42684); experiment: Caliper, Mobility shift assay off-chip
CAMK2A (human) = CAMK2A (human) (UniProt Q9UQM7); experiment: Caliper, Mobility shift assay off-chip
PRKACB (human) = PRKACB (human) (UniProt P22694); experiment: Caliper, Mobility shift assay off-chip
SRMS (human) = SRMS (human) (UniProt Q9H3Y6); experiment: Caliper, Mobility shift assay off-chip
PRKCE (human) = PRKCE (human) (UniProt Q02156); experiment: Caliper, Mobility shift assay off-chip
RET (human) = RET (human) (UniProt P07949); experiment: Caliper, Mobility shift assay off-chip
TEK (human) = TEK (human) (UniProt Q02763); experiment: Caliper, Mobility shift assay off-chip
DDR2 (human) = DDR2 (human) (UniProt Q16832); experiment: Caliper, Mobility shift assay off-chip

LTK (human), sequence (P29376 whole entry, looked up): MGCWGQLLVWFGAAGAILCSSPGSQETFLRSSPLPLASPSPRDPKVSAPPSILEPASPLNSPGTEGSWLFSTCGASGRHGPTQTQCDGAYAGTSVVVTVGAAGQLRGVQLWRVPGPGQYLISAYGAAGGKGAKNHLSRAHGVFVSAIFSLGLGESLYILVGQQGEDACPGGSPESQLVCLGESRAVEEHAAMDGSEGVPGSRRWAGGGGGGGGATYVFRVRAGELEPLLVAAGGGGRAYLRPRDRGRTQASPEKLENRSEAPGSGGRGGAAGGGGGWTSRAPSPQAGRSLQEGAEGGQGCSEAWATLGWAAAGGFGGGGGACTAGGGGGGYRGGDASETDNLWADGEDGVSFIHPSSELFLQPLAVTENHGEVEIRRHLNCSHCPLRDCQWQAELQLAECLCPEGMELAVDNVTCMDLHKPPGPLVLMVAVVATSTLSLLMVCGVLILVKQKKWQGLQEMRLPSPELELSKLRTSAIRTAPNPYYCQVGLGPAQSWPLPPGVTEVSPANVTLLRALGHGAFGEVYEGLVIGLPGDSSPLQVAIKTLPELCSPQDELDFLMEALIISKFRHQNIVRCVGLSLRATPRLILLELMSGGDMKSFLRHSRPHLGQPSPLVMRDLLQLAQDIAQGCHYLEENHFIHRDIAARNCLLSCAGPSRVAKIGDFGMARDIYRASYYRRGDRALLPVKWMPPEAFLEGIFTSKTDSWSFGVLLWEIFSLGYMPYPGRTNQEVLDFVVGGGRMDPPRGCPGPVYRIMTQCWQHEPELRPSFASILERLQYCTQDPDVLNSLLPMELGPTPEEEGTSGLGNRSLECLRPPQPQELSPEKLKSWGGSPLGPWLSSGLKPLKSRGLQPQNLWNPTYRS
SRMS (human), sequence (Q9H3Y6 whole entry, looked up): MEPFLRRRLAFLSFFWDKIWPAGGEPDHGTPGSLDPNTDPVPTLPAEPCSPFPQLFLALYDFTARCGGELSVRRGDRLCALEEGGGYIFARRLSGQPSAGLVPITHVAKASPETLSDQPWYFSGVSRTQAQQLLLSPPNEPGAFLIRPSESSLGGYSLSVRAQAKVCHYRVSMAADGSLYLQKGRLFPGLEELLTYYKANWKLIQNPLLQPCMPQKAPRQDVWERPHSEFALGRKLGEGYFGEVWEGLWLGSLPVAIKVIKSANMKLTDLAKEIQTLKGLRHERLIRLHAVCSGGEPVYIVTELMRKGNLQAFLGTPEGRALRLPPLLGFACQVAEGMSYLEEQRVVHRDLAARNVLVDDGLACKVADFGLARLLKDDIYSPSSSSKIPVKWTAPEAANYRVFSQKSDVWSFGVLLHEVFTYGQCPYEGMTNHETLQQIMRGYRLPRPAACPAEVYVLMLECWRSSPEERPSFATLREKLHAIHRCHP
PRKCI (human), sequence (P41743 whole entry, looked up): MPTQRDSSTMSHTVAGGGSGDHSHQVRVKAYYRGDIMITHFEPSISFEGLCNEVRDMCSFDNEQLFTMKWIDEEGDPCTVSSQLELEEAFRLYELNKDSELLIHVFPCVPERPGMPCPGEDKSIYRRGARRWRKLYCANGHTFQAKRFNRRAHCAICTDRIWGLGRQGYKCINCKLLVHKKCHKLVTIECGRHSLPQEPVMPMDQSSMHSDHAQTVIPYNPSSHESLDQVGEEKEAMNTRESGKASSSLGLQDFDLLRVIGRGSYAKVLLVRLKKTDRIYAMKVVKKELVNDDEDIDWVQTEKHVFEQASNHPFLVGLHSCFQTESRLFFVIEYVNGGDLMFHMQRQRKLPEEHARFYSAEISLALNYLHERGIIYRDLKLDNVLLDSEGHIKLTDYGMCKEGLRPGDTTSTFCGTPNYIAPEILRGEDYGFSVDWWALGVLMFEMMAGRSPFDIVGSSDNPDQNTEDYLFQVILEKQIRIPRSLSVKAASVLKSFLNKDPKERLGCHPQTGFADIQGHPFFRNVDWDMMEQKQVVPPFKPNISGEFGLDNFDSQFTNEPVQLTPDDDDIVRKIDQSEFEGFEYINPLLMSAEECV
EEF2K (human), sequence (O00418 whole entry, looked up): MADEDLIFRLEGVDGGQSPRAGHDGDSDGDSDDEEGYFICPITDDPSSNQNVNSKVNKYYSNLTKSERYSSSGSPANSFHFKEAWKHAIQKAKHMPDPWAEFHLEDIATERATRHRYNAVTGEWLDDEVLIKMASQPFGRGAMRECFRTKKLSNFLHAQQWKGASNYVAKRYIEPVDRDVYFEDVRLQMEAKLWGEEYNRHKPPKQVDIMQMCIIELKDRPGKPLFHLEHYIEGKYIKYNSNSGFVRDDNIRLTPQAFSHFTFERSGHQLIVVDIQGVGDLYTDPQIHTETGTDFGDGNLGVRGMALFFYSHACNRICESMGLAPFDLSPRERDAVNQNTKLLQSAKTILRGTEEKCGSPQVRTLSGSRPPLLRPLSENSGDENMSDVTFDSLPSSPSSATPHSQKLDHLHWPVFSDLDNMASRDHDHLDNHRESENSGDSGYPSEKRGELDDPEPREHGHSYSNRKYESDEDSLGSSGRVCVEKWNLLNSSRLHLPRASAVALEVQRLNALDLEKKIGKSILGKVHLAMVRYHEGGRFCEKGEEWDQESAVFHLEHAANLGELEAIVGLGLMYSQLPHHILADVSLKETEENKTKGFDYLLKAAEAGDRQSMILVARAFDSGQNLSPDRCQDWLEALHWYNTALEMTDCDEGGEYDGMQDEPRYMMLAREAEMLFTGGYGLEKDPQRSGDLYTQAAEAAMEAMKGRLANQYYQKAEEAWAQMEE
PDGFRA (human), sequence (P16234 whole entry, looked up): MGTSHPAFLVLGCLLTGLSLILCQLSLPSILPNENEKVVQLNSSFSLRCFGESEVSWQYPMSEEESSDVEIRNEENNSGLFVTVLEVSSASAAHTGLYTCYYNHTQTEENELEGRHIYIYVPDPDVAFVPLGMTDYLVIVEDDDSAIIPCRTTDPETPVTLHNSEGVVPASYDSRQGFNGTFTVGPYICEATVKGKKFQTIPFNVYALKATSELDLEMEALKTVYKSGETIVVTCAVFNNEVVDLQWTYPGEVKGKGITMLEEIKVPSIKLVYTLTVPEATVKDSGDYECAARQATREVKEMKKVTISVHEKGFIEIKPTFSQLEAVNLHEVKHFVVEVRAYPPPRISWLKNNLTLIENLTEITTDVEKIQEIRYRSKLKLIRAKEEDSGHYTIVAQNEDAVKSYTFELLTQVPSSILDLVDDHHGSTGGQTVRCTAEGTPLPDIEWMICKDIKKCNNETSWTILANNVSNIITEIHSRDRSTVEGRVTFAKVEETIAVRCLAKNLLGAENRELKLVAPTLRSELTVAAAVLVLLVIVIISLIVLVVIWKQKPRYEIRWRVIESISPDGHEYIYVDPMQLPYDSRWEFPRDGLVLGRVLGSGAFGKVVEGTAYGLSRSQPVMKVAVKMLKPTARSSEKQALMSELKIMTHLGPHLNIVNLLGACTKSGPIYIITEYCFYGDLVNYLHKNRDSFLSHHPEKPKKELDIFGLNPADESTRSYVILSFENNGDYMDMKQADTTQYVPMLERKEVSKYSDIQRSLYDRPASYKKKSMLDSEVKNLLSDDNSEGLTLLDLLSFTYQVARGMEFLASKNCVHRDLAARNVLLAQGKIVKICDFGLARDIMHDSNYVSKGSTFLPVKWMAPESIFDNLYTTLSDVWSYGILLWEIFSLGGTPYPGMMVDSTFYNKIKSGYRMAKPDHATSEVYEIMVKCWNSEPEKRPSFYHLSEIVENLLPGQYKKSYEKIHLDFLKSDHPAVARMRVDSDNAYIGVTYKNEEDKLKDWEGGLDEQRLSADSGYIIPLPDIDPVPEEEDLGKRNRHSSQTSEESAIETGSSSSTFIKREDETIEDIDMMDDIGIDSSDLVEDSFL
STK4 (human), sequence (Q13043 whole entry, looked up): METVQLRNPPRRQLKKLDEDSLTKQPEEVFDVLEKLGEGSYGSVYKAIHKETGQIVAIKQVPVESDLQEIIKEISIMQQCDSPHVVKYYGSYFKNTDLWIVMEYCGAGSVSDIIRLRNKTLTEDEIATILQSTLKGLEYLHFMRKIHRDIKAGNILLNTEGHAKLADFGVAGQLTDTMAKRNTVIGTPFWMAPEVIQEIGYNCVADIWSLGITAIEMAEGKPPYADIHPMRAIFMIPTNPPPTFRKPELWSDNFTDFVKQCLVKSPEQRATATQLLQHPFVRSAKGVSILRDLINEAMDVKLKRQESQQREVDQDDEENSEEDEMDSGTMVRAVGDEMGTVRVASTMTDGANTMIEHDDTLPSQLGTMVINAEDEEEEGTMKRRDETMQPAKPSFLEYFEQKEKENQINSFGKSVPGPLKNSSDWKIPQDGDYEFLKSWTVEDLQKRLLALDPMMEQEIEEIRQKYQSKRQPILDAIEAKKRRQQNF
FYN (human), sequence (P06241 whole entry, looked up): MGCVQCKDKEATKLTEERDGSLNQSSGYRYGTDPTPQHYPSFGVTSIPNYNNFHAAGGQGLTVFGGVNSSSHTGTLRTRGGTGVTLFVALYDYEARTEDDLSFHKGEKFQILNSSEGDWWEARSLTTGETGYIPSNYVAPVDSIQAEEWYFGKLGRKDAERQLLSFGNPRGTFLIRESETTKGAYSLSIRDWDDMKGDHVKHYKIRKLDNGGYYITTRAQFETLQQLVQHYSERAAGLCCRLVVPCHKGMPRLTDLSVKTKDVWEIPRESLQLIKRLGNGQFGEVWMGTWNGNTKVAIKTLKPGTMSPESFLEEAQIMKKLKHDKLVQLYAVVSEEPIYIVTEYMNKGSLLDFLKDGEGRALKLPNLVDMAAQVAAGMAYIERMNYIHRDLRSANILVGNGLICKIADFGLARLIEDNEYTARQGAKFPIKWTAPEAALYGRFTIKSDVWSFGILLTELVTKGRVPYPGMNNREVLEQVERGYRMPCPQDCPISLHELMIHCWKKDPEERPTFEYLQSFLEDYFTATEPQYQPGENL

inhibition (EIF2AK2 (human); compound 0.02 µM): -12.3%
inhibition (EIF2AK2 (human); compound 0.2 µM): -14.3%
inhibition (PKN1 (human); compound 0.02 µM): -40.2%
inhibition (PKN1 (human); compound 0.2 µM): -39.4%
inhibition (EIF2AK3 (human); compound 0.02 µM): -23.9%
inhibition (EIF2AK3 (human); compound 0.2 µM): 4.5%
inhibition (SRPK1 (human); compound 0.02 µM): -5.4%
inhibition (SRPK1 (human); compound 0.2 µM): 0.2%
inhibition (AKT3 (human); compound 0.02 µM): -2.6%
inhibition (AKT3 (human); compound 0.2 µM): -1.1%
inhibition (TSSK3 (human); compound 0.02 µM): 2.7%
inhibition (TSSK3 (human); compound 0.2 µM): 8.3%
inhibition (DYRK1A (human); compound 0.02 µM): -7.5%
inhibition (DYRK1A (human); compound 0.2 µM): 3.6%
inhibition (MARK3 (human); compound 0.02 µM): -5.5%
inhibition (MARK3 (human); compound 0.2 µM): 5.7%
inhibition (WNK1 (human); compound 0.02 µM): -4.5%
inhibition (WNK1 (human); compound 0.2 µM): 6.3%
inhibition (SRPK3 (human); compound 0.02 µM): -0.5%
inhibition (SRPK3 (human); compound 0.2 µM): 7.9%
inhibition (PRKAA1 (human); compound 0.02 µM): -5.7%
inhibition (PRKAA1 (human); compound 0.2 µM): 10.7%
inhibition (IRAK4 (human); compound 0.02 µM): -5.9%
inhibition (IRAK4 (human); compound 0.2 µM): -4.6%
inhibition (TYRO3 (human); compound 0.02 µM): -9.4%
inhibition (TYRO3 (human); compound 0.2 µM): 3.7%
inhibition (EPHA1 (human); compound 0.02 µM): -1.2%
inhibition (EPHA1 (human); compound 0.2 µM): 8%
inhibition (PDGFRA (human); compound 0.02 µM): 97.3%
inhibition (PDGFRA (human); compound 0.2 µM): 105%
inhibition (PRKCI (human); compound 0.02 µM): -0.2%
inhibition (PRKCI (human); compound 0.2 µM): 5.7%
inhibition (BLK (human); compound 0.02 µM): 1%
inhibition (BLK (human); compound 0.2 µM): 6.4%
inhibition (EEF2K (human); compound 0.02 µM): -3.9%
inhibition (EEF2K (human); compound 0.2 µM): 0%
inhibition (STK4 (human); compound 0.02 µM): -5.1%
inhibition (STK4 (human); compound 0.2 µM): -3.5%
inhibition (CHUK (human); compound 0.02 µM): 3.4%
inhibition (CHUK (human); compound 0.2 µM): 1%
inhibition (FYN (human); compound 0.02 µM): -2.5%
inhibition (FYN (human); compound 0.2 µM): 14.5%
inhibition (RPS6KA6 KD1 KD2 (human); compound 0.02 µM): -2%
inhibition (RPS6KA6 KD1 KD2 (human); compound 0.2 µM): -6.2%
inhibition (PRKCD (human); compound 0.02 µM): -1.7%
inhibition (PRKCD (human); compound 0.2 µM): 11.7%
inhibition (LTK (human); compound 0.02 µM): -2.2%
inhibition (LTK (human); compound 0.2 µM): 7.4%
inhibition (CAMK1D (human); compound 0.02 µM): -6.7%
inhibition (CAMK1D (human); compound 0.2 µM): 3.1%
inhibition (ALK NPM1 (human); compound 0.02 µM): -6%
inhibition (ALK NPM1 (human); compound 0.2 µM): 5%
inhibition (ABL2 (human); compound 0.02 µM): -2.8%
inhibition (ABL2 (human); compound 0.2 µM): 3.1%
inhibition (CAMK2A (human); compound 0.02 µM): -2.1%
inhibition (CAMK2A (human); compound 0.2 µM): 5.8%
inhibition (PRKACB (human); compound 0.02 µM): -7.7%
inhibition (PRKACB (human); compound 0.2 µM): 3.1%
inhibition (SRMS (human); compound 0.02 µM): -0.4%
inhibition (SRMS (human); compound 0.2 µM): 4.1%
inhibition (PRKCE (human); compound 0.02 µM): 0.4%
inhibition (PRKCE (human); compound 0.2 µM): 6%
inhibition (RET (human); compound 0.02 µM): 79.4%
inhibition (RET (human); compound 0.2 µM): 101%
inhibition (TEK (human); compound 0.02 µM): -2.6%
inhibition (TEK (human); compound 0.2 µM): 9.5%
Structure (SMILES): CNC(=O)c1cc(Oc2ccc(NC(=O)Nc3ccc(Cl)c(C(F)(F)F)c3)cc2)ccn1

inhibition (EIF2AK2 (human); compound 0.02 µM): -13.8%
inhibition (EIF2AK2 (human); compound 0.2 µM): -6.6%
inhibition (PKN1 (human); compound 0.02 µM): -35.8%
inhibition (PKN1 (human); compound 0.2 µM): -32.5%
inhibition (EIF2AK3 (human); compound 0.02 µM): -18%
inhibition (EIF2AK3 (human); compound 0.2 µM): -16.8%
inhibition (SRPK1 (human); compound 0.2 µM): -5.6%
inhibition (AKT3 (human); compound 0.02 µM): -3.5%
inhibition (AKT3 (human); compound 0.2 µM): -4.2%
inhibition (TSSK3 (human); compound 0.02 µM): 0.6%
inhibition (TSSK3 (human); compound 0.2 µM): 12.5%
inhibition (DYRK1A (human); compound 0.02 µM): 10%
inhibition (DYRK1A (human); compound 0.2 µM): -4%
inhibition (MARK3 (human); compound 0.02 µM): -1.8%
inhibition (MARK3 (human); compound 0.2 µM): -3.4%
inhibition (WNK1 (human); compound 0.02 µM): 4.8%
inhibition (WNK1 (human); compound 0.2 µM): 2.6%
inhibition (SRPK3 (human); compound 0.02 µM): -3.4%
inhibition (SRPK3 (human); compound 0.2 µM): 0.3%
inhibition (PRKAA1 (human); compound 0.2 µM): 7.1%
inhibition (IRAK4 (human); compound 0.02 µM): -5.6%
inhibition (IRAK4 (human); compound 0.2 µM): -5.6%
inhibition (TYRO3 (human); compound 0.02 µM): 7.9%
inhibition (TYRO3 (human); compound 0.2 µM): 40.5%
inhibition (EPHA1 (human); compound 0.02 µM): -0.2%
inhibition (EPHA1 (human); compound 0.2 µM): 6.5%
inhibition (PDGFRA (human); compound 0.02 µM): 39.2%
inhibition (PDGFRA (human); compound 0.2 µM): 86.9%
inhibition (PRKCI (human); compound 0.02 µM): 4.3%
inhibition (PRKCI (human); compound 0.2 µM): 6%
inhibition (BLK (human); compound 0.02 µM): 13.8%
inhibition (BLK (human); compound 0.2 µM): 36.1%
inhibition (EEF2K (human); compound 0.02 µM): -5.2%
inhibition (EEF2K (human); compound 0.2 µM): 3.1%
inhibition (STK4 (human); compound 0.02 µM): -4.5%
inhibition (STK4 (human); compound 0.2 µM): 9%
inhibition (DDR2 (human); compound 0.02 µM): 26.6%
inhibition (DDR2 (human); compound 0.2 µM): 82.1%
inhibition (CHUK (human); compound 0.02 µM): 5.3%
inhibition (CHUK (human); compound 0.2 µM): 5.3%
inhibition (FYN (human); compound 0.02 µM): 13.7%
inhibition (FYN (human); compound 0.2 µM): 35.9%
inhibition (RPS6KA6 KD1 KD2 (human); compound 0.02 µM): 15%
inhibition (RPS6KA6 KD1 KD2 (human); compound 0.2 µM): -2.3%
inhibition (PRKCD (human); compound 0.02 µM): 11.1%
inhibition (PRKCD (human); compound 0.2 µM): -2.2%
inhibition (LTK (human); compound 0.02 µM): 4.7%
inhibition (LTK (human); compound 0.2 µM): 5.6%
inhibition (CAMK1D (human); compound 0.02 µM): 0.3%
inhibition (CAMK1D (human); compound 0.2 µM): -0.6%
inhibition (ALK NPM1 (human); compound 0.02 µM): 3.6%
inhibition (ALK NPM1 (human); compound 0.2 µM): 5.1%
inhibition (ABL2 (human); compound 0.02 µM): 5.6%
inhibition (ABL2 (human); compound 0.2 µM): 34.5%
inhibition (CAMK2A (human); compound 0.02 µM): 3.5%
inhibition (CAMK2A (human); compound 0.2 µM): 3.9%
inhibition (PRKACB (human); compound 0.02 µM): 6.8%
inhibition (PRKACB (human); compound 0.2 µM): -7.7%
inhibition (SRMS (human); compound 0.02 µM): -0.7%
inhibition (SRMS (human); compound 0.2 µM): -1.7%
inhibition (PRKCE (human); compound 0.02 µM): 7.2%
inhibition (PRKCE (human); compound 0.2 µM): -3%
inhibition (RET (human); compound 0.02 µM): 76.8%
inhibition (RET (human); compound 0.2 µM): 98.7%
inhibition (TEK (human); compound 0.02 µM): 5.8%
inhibition (TEK (human); compound 0.2 µM): 48.5%
Structure (SMILES): COc1cc2c(Oc3ccc4[nH]c(C)cc4c3F)ncnc2cc1OCCCN1CCCC1
